As usually defined, the IC50 is the concentration at which inhibition is half-maximal. Low readings indicate greater potency, high ones weaker potency.

Consider 31 compounds from patent publication US8946426B2, “Substituted bicyclic heterocyclic compounds as gamma secretase modulators” (Janssen Pharmaceuticals, Inc., priority 2009, dated 2015).

Molecules are shown by their SMILES.

Format in all cases: cell-based
The subject of experiment [1] is Aβtotal. Briefly: Method 2: Aβtotal Alphalisa in supernatant of SKNBE2 cells carrying APP 695-wild type (Table 7c). The settings on record: Method 2, Alphalisa, overnight incubation. On the procedure: (§1) Screening was carried out using SKNBE2 cells carrying the APP 695-wild type, grown in Dulbecco's Modified Eagle's Medium/Nutrient mixture F-12 (DMEM/NUT-mix F-12) (HAM) provided by Invitrogen (cat no. 10371-029) containing 5% Serum/Fe supplemented with 1% non-essential amino acids, 1-glutamine 2 mM, Hepes 15 mM, penicillin 50 U/ml (units/ml) en streptomycin 50 μg/ml. Cells were grown to near confluency.
(§2) The screening was performed using a modification of the assay as described in Citron et al (1997) Nature Medicine 3: 67. Briefly, cells were plated in a 384-well plate at 10^4 cells/well in Ultraculture (Lonza, BE12-725F) supplemented with 1% glutamine (Invitrogen, 25030-024), 1% non-essential amino acid (NEAA), penicillin 50 U/ml en streptomycin 50 μg/ml in the presence of test compound at different test concentrations. The cell/compound mixture was incubated overnight at 37° C., 5% CO2. The next day the media were assayed by two sandwich immuno-assays, for Aβ42 and Aβtotal.
(§3) Aβtotal and Aβ42 concentrations were quantified in the cell supernatant using the Aphalisa technology (Perkin Elmer). Alphalisa is a sandwich assay using biotinylated antibody attached to streptavidin coated donorbeads and antibody conjugated to acceptor beads. In the presence of antigen, the beads come into close proximity. The excitation of the donor beads provokes the release of singlet oxygen molecules that trigger a cascade of energy transfer in the acceptor beads, resulting in light emission. To quantify the amount of Aβ42 in the cell supernatant, monoclonal antibody specific to the C-terminus of Aβ42 (JRF/cAβ42/26) was coupled to the receptor beads and biotinylated antibody specific to the N-terminus of Aβ (JRF/AβN/25) was used to react with the donor beads. To quantify the amount of Aβtotal in the cell supernatant, monoclonal antibody specific to the N-terminus of Aβ (JRF/AβN/25) was coupled to the receptor beads and biotinylated antibody specific to the mid region of Aβ (biotinylated 4G8) was used to react with the donor beads.
(§4) To obtain the values reported in Table 7c, the data were calculated as percentage of the maximum amount of amyloid Beta 42 measured in the absence of the test compound. The sigmoidal dose response curves were analyzed using non-linear regression analysis with percentage of the control plotted against the log concentration of the compound. A 4-parameter equation was used to determine the IC50.

In experiment [2] the test system is Aβ42. Briefly: Method 2: Aβ42 Alphalisa in supernatant of SKNBE2 cells carrying APP 695-wild type (Table 7c). The note with it: Method 2, Alphalisa, overnight incubation. On the procedure:
as §1, §2, §3, §4
(In general: Alpha assays give light when donor and acceptor beads are brought close together.)

Experiment [3] deals with Aβ42. Put plainly: Method 1: Aβ42 sandwich ELISA in supernatant of SKNBE2 cells carrying APP 695-wild type (Tables 7a, 7b). As for the experimental part: (§5) Screening was carried out using SKNBE2 cells carrying the APP 695-wild type, grown in Dulbecco's Modified Eagle's Medium/Nutrient mixture F-12 (DMEM/NUT-mix F-12) (HAM) provided by Gibco (cat no. 31330-38) containing 5% Serum/Fe supplemented with 1% non-essential amino acids. Cells were grown to near confluency.
(§6) The screening was performed using the assay as described in Citron et al (1997) Nature Medicine 3: 67. Briefly, cells were plated in a 96-well plate at about 10^5 cells/ml one day prior to addition of compounds. Compounds were added to the cells in Ultraculture (Lonza, BE12-725F) supplemented with 1% glutamine (Invitrogen, 25030-024) for 18 Hours. The media were assayed by two sandwich ELISAs, for Aβ42 and Aβtotal. Toxicity of the compounds was assayed by WST-1 cell proliferation reagent (Roche, 1 644 807) according to the manufacturer's protocol.
To quantify the amount of Aβ42 in the cell supernatant, commercially available Enzyme-Linked-Immunosorbent-Assay (ELISA) kits were used (Innotest® β-Amyloid(1-42), Innogenetics N.V., Ghent, Belgium). The Aβ42 ELISA was performed essentially according to the manufacturer's protocol. Briefly, the standards (dilutions of synthetic Aβ1-42) were prepared in polypropylene Eppendorf with final concentrations of 8000 down to 3.9 pg/ml (½ dilution step). Samples, standards and blanks (100 μl) were added to the anti-Aβ42-coated plate supplied with the kit (the capture antibody selectively recognizes the C-terminal end of the antigen). The plate was allowed to incubate 3 H at 25° C. in order to allow formation of the antibody-amyloid complex. Following this incubation and subsequent wash steps a selective anti-Aβ-antibody conjugate (biotinylated 3D6) was added and incubated for a minimum of 1 Hour in order to allow formation of the antibody-Amyloid-antibody-complex. After incubation and appropriate wash steps, a Streptavidine-Peroxidase-Conjugate was added, followed 30 minutes later by an addition of 3,3′,5,5′-tetramethylbenzidine (TMB)/peroxide mixture, resulting in the conversion of the substrate into a coloured product. This reaction was stopped by the addition of sulfuric acid (0.9 N) and the colour intensity was measured by means of photometry with an ELISA-reader with a 450 nm filter.
(§7) To obtain the values reported in Table 7a, the sigmoidal dose response curves were analysed by computerised curve-fitting, with percent of inhibition plotted against compound concentration. A 4-parameter equation (model 205) in XLfit was used to determine the IC50. The top and the bottom of the curve were fixed to 100 and 0, respectively, and the hill slope was fixed to 1. The IC50 represents the concentration of a compound that is required for inhibiting a biological effect by 50% (Here, it is the concentration where Aβ peptide level is reduced by 50%).
(§8) To obtain the values reported in Table 7b, the data were calculated as percentage of the maximum amount of amyloid Beta 42 measured in the absence of the test compound. The sigmoidal dose response curves were analyzed using non-linear regression analysis with percentage of the control plotted against the log concentration of the compound. A 4-parameter equation was used to determine the IC50. The values reported in Table 7b are averaged IC50 values.
(In general: ELISA stands for enzyme-linked immunosorbent assay.)

The test system of experiment [4] is Aβtotal. Put plainly: Method 1: Aβtotal sandwich ELISA in supernatant of SKNBE2 cells carrying APP 695-wild type (Tables 7a, 7b). As for the experimental part:
as §5, §6
To quantify the amount of Aβtotal in the cell supernatant, samples and standards were added to a 6E10-coated plate. The plate was allowed to incubate overnight at 4° C. in order to allow formation of the antibody-amyloid complex. Following this incubation and subsequent wash steps a selective anti-Aβ-antibody conjugate (biotinylated 4G8) was added and incubated for a minimum of 1 Hour in order to allow formation of the antibody-Amyloid-antibody-complex. After incubation and appropriate wash steps, a Streptavidine-Peroxidase-Conjugate was added, followed 30 minutes later by an addition of Quanta Blu fluorogenic peroxidase substrate according to the manufacturer's instructions (Pierce Corp., Rockford, Ill.).
as §7, §8

[5] abbreviates: Table 7b, averaged IC50, non-linear regression of percentage of control vs log concentration, 4-parameter equation.
Where [6] appears, read: Homo sapiens, SKNBE2, Table 7b, averaged IC50, non-linear regression of percentage of control vs log concentration, 4-parameter equation.
[7] abbreviates: Table 7a, SKNBE2 cells, compounds 18 h, XLfit 4-parameter fit of percent inhibition, top/bottom fixed to 100/0, hill slope 1.

In the case of `Cc1cc(-c2ccc(Nc3cccn4c(C)c(-c5ccccc5Cl)nc34)cc2F)ccn1` [Compound 182], the values for the IC50 with Aβtotal [1] and in the experiment on Aβ42 [2] were 7760 nM and 162 nM, respectively.
As to `COc1nc(Nc2cccc3c2nc(-c2ccc(F)cc2)n3C)ccc1-c1cnn(C)c1` [Compound 68], the IC50 in the experiment on Aβtotal [1] was greater than 10000 nM; in the experiment on Aβ42 [2], 18 nM.
In the same order, the values of `COc1cc(Nc2cccc3c2nc(-c2ccc(F)cc2)n3C(C)C)ccc1-c1oc(C)nc1C` [Compound 80] are greater than 10000 nM and 49 nM.
With `Cc1ncc(-c2ccc(Nc3cc(C(C)C)nc4c3nc(-c3ccc(F)cc3)n4C)cn2)o1` [Compound 191], the IC50 is greater than 10000 nM with Aβtotal [1] and 12 nM in the experiment with Aβ42 [2].
For the compound `COCc1c(-c2ccc(F)cc2)nc2c(Nc3ccc(-c4cnc(C)o4)c(OC)c3)cccn12` [Compound 168], the IC50 was greater than 10000 nM in the experiment on Aβtotal [1] and 51 nM in the experiment with Aβ42 [2].
As to `Cc1cc(-c2ccc(Nc3cccc4c3nc(-c3ccc(F)cc3)n4C(C)C)cc2F)ccn1` [Compound 137], the IC50 in the experiment on Aβtotal [1] was greater than 10000 nM; with Aβ42 [2] it was 117 nM.
The like results for `COc1cc(Nc2cccc3c2nc(-c2ccc(F)cc2)n3C)ccc1-c1cnn(C)n1` [Compound 73] were, in that order, 5620 nM and 141 nM.
Consider `COc1cc(Nc2cc(F)cn3cc(-c4ccc(F)cc4C)nc23)ccc1-c1ocnc1C` [Compound 147], for which the IC50 stood at 85 nM with Aβ42 [3] (setting [5]) and 468 nM in the experiment on Aβ42 [2].
Turning to `Cc1ncoc1-c1ccc(Nc2cccc3c2nc(-c2ccc(Cl)s2)n3C(C)C)cn1` [Compound 116], the IC50 is greater than 10000 nM in the experiment with Aβtotal [1] and 72 nM with Aβ42 [2].
In the same order, the values of `Cc1nc(C)c(-c2ccc(Nc3cccc4c3nc(-c3ccc(F)cc3)n4C(C)C)cc2)o1` [Compound 81] are greater than 10000 nM and 95 nM.
Consider `Cc1cc(-c2ccc(Nc3cccn4c(C)c(-c5ccccc5Cl)nc34)cc2)ccn1` [Compound 183], for which the IC50 in the experiment on Aβtotal [1] was 8710 nM; in the experiment on Aβ42 [2], 83 nM.
The like results for `Cc1cc(-c2ccc(Nc3cccc4c3nc(-c3ccc(F)cc3)n4C)nn2)ccn1` [Compound 135] were, in that order, greater than 10000 nM and 347 nM.
The like results for `COc1cc(Nc2cccc3c2nc(-c2ccc(F)cc2)n3C)ccc1-c1ccnc(C)c1` [Compound 139] were, in that order, 6610 nM and 60 nM.
On to `COc1cc(Nc2cc(C#N)nc3c2nc(-c2ccc(F)cc2)n3C)ccc1-c1cnc(C)o1` [Compound 189], for which the IC50 in the experiment on Aβtotal [1] is greater than 10000 nM; in the experiment on Aβ42 [2], 2400 nM.
As for `COc1cc(Nc2nc(C)cc3c2nc(-c2ccc(F)cc2)n3C)ccc1-c1ccnc(C)c1` [Compound 127], the IC50 came to 3630 nM in the experiment with Aβtotal [1] and 44 nM in the experiment with Aβ42 [2].
Take `COc1cc(Nc2nc(C)cc3c2nc(-c2ccccc2Cl)n3C)ccc1-c1ocnc1C` [Compound 113]: the IC50 with Aβtotal [1] was 4900 nM; in the experiment on Aβ42 [2] it was 66 nM.
The like results for `Cc1cc(-c2ccc(Nc3cccc4c3nc(-c3ccc(F)cc3)n4C(C)C)cc2)ccn1` [Compound 131] were, in that order, greater than 10000 nM and 28 nM.
Regarding `Cc1ccc(F)cc1-c1cn2nccc(Nc3ccc(-c4ocnc4C)nc3)c2n1` [Compound 197], the figures for the IC50 in the experiment on Aβtotal [1] (Homo sapiens) and in the experiment with Aβ42 [2] (Homo sapiens) were greater than 10000 nM and 550 nM, respectively.
On to `Cc1ncc(-c2ccc(Nc3ccnc4c3nc(-c3ccc(F)cc3)n4C)cc2F)o1` [Compound 187], for which the figures for the IC50 with Aβtotal [1] and in the experiment with Aβ42 [2] were greater than 10000 nM and 62 nM, respectively.
On to `COCc1ncc(-c2ccc(Nc3cccc4c3nc(-c3ccc(F)cc3)n4C(C)C)cc2)o1` [Compound 84], for which the IC50 in the experiment with Aβtotal [1] is greater than 10000 nM; with Aβ42 [2], 112 nM.
The like results for `Cc1cc(-c2ccc(Nc3cccc4c3nc(-c3ccc(F)cc3)n4C(C)C)cc2)cc(C)n1` [Compound 140] were, in that order, greater than 10000 nM and 759 nM.
Take `Cc1cc(-c2ccc(Nc3cccc4c3nc(-c3ccc(F)cc3)n4C)cc2F)ccn1` [Compound 133]: the IC50 is greater than 10000 nM in the experiment on Aβtotal [1] and 191 nM with Aβ42 [2].
In the case of `COc1cc(Nc2cc(C(F)(F)F)cc3c2nc(CCC(F)(F)F)n3C)ccc1-c1ocnc1C` [Compound 126], the figures for the IC50 in the experiment with Aβ42 [3] (setting [5]) and with Aβ42 [2] were 214 nM and 741 nM, respectively.
Consider `COc1cc(Nc2cccn3cc(C4CCOCC4)nc23)ccc1-c1ocnc1C` [Compound 155], for which the IC50 was 389 nM in the experiment with Aβ42 [3] (setting [5]) and 14800 nM in the experiment on Aβtotal [4] (setting [5]).
In the case of `COc1cc(Nc2cc(CN)cc3c2nc(-c2ccc(F)cc2)n3C)ccc1-c1ocnc1C` [Compound 120], the results for the IC50 in the experiment with Aβ42 [3] (setting [6]) and in the experiment with Aβtotal [4] (setting [6]) were 324 nM and greater than 3000 nM, respectively.
For the compound `COc1cccc(-c2nc3c(Nc4ccc(-c5ocnc5C)c(OC)c4)cccc3n2C)c1` [Compound 20], the IC50 with Aβ42 [3] (setting [7]) was 13 nM; in the experiment with Aβ42 [3] (setting [5]) it was 17 nM; in the experiment on Aβtotal [4] (setting [7]), greater than 1000 nM; in the experiment on Aβtotal [4] (setting [5]), greater than 1000 nM.
On to `COc1cc(Nc2nccc3c2nc(-c2ccc(F)cc2)n3C(C)C)ccc1-c1cnc(C)o1` [Compound 27], for which the half-maximal inhibitory concentration (IC50) was 676 nM in the experiment with Aβ42 [3] (setting [5]) and greater than 3000 nM in the experiment on Aβtotal [4] (setting [5]).
In the same order, the values of `Cn1cc(-c2ccc(Nc3cccc4c3nc(-c3ccc(F)cc3)n4C)cn2)cn1` [Compound 70] are 76 nM and greater than 3000 nM.
In the same order, the values of `COc1cc(Nc2cccc3c2nc(-c2ccc(F)cc2)n3C(C)C)ccc1-c1cnc(C)s1` [Compound 77] are 43 nM and greater than 3000 nM.
For `COc1cccc(-c2nc3c(Nc4ccc(-c5cnc(C)o5)cc4)cccc3n2C(C)C)c1` [Compound 21], the IC50 in the experiment with Aβ42 [3] (setting [5]) was 9 nM; in the experiment on Aβtotal [4] (setting [5]), greater than 3000 nM.
In the case of `Cc1cc(F)ccc1-c1cn2cccc(Nc3ccc(-c4ocnc4C)nc3)c2n1` [Compound 44], the IC50 with Aβ42 [3] (setting [7]) is 140 nM; in the experiment with Aβ42 [3] (setting [5]), 138 nM; with Aβtotal [4] (setting [7]), greater than 10000 nM; in the experiment with Aβtotal [4] (setting [5]), greater than 10000 nM.
